The values that follow are results of earlier work, collected in patent publication US12176087B2, “Pharmacogenomic decision support for modulators of the NMDA, glycine, and AMPA receptors” (THE REGENT OF THE UNIVERSITY OF MICHIGAN, priority 2019, dated 2024).

Series [1] concerns treatment-resistant depression (TRD) patients.
Series [2] has as its system TRD patients. Conditions: phase III trial.

SMILES strings stand for the structures.

On to `CNC1(c2ccccc2Cl)CCCCC1=O` (racemic) [Ketamine, RS-2-chlorophenyl-2-methylamino-cyclohexanone], for which the “TRD patients who do not remit after treatment” value in series [1] (fraction of all TRD patients) is reported as “about half”. Besides, the “TRD patients with rapid antidepressant response and concomitant elevated levels of glutamate in cortex” value in series [1] (measured by MADRS total score) is listed as “approximately 50%”.
Consider `CN[C@]1(c2ccccc2Cl)CCCCC1=O` [Esketamine], for which the deaths reported in series [2] is on record as 2. The “TRD patients who experienced severe dissociative effects” value in series [2] (fraction of TRD patients) is “a quarter”. The “TRD patients in the treatment arm with severe psychotomimetic effects including delirium, delusion and suicidal ideation, as well as suicide attempts” value in series [2] (treatment arm, additional) is 6.9%.
